Assay results published in ChEMBL document CHEMBL1129697, “Synthesis and anticonvulsant evaluation of a series of (R)- and (S)-N-Cbz--aminoglutarimide and succinimide” (Bioorg Med Chem Lett, 1996).
Calls of active or inactive are those of the source. The rule behind the calls is not given here.

Columns and labels:
Mus musculus [1] = species on record: Mus musculus; assay: Compound was tested for anticonvulsant activity in male mice using maximal electric shock seizure test.; format: functional
[2] = Compound was tested for anticonvulsant activity in male mice using maximal electric shock seizure test; Protective index = TD50/ED50; format: ADME; settings: mouse, read-out: PI
[3] = Compound was tested for anticonvulsant activity in male mice by pentylenetetrazole (80 mg/kg, sc) induced seizure test.; Protective index = TD50/ED50; format: ADME, organism-based; settings: mouse, in vivo, read-out: PI
Mus musculus [4] = assay: Compound was tested for anticonvulsant activity in male mice by pentylenetetrazole (80 mg/kg, sc) induced seizure test.; format: functional
[5] = Compound was tested for neurotoxic activity in male mice using rotarod test.; format: ADME; settings: mouse, in vivo
Mus musculus [6] = assay: Compound was tested for anticonvulsant activity in male mice by pentylenetetrazole (80 mg/kg, sc) induced seizure test.; No effect; format: functional, organism-based
Mus musculus [7] = species on record: Mus musculus; assay: Compound was tested for anticonvulsant activity in male mice using maximal electric shock seizure test; No effect; format: functional, organism-based
[8] = Compound was tested for anticonvulsant activity in male mice using maximal electric shock seizure test.; Protective index = TD50/ED50; format: ADME; settings: mouse, read-out: PI

O=C1CC[C@H](NC(=O)OCc2ccccc2)C(=O)N1
ED50 (Mus musculus [1]): 43.1 mg/kg | selectivity ratio [2]: 3 | selectivity ratio [3]: 3.1 | ED50 (Mus musculus [4]): 42.5 mg/kg | TD50 [5]: 130 mg/kg

O=C1C[C@@H](NC(=O)OCc2ccccc2)C(=O)N1
ED50 (Mus musculus [1]): 125 mg/kg | selectivity ratio [2]: 1.4 | selectivity ratio [3]: 1.6 | ED50 (Mus musculus [4]): 110 mg/kg | TD50 [5]: 178 mg/kg

O=C1CC[C@@H](NC(=O)OCc2ccccc2)C(=O)N1
ED50 (Mus musculus [1]): 56.3 mg/kg | selectivity ratio [2]: 2.2 | selectivity ratio [3]: 2.6 | ED50 (Mus musculus [4]): 46.9 mg/kg | TD50 [5]: 122 mg/kg

O=C1NC(=O)C(c2ccccc2)(c2ccccc2)N1
ED50 (Mus musculus [6]): inactive

CCCC(CCC)C(=O)O [VALPROIC ACID]
ED50 (Mus musculus [1]): 272 mg/kg | ED50 (Mus musculus [4]): 149 mg/kg

CN1C(=O)C[C@@H](NC(=O)OCc2ccccc2)C1=O
ED50 (Mus musculus [1]): 52.5 mg/kg | selectivity ratio [2]: 3.2 | selectivity ratio [3]: 2 | ED50 (Mus musculus [4]): 82.5 mg/kg | TD50 [5]: 167 mg/kg

CCC1(c2ccccc2)C(=O)NC(=O)NC1=O [PHENOBARBITAL]
ED50 (Mus musculus [1]): 21.8 mg/kg | ED50 (Mus musculus [4]): 13.1 mg/kg

O=C1C[C@H](NC(=O)OCc2ccccc2)C(=O)N1
ED50 (Mus musculus [1]): 103 mg/kg | selectivity ratio [2]: 1.6 | selectivity ratio [3]: 2.1 | ED50 (Mus musculus [4]): 78.1 mg/kg | TD50 [5]: 161 mg/kg

CCC1(C)CC(=O)NC1=O (stereo not drawn) [ETHOSUXIMIDE]
ED50 (Mus musculus [7]): inactive | selectivity ratio [3]: 3.4 | ED50 (Mus musculus [4]): 130 mg/kg

CN1C(=O)CC(C)(c2ccccc2)C1=O (stereo not drawn) [METHSUXIMIDE]
ED50 (Mus musculus [1]): 42.6 mg/kg | selectivity ratio [2]: 3.1 | selectivity ratio [3]: 3.7 | ED50 (Mus musculus [4]): 34.5 mg/kg | TD50 [5]: 130 mg/kg

CN1C(=O)C[C@H](NC(=O)OCc2ccccc2)C1=O
ED50 (Mus musculus [1]): 61.2 mg/kg | selectivity ratio [2]: 1.9 | selectivity ratio [3]: 1 | ED50 (Mus musculus [4]): 113 mg/kg | TD50 [5]: 118 mg/kg

CN1C(=O)CC[C@H](NC(=O)OCc2ccccc2)C1=O
ED50 (Mus musculus [1]): 36.1 mg/kg | selectivity ratio [2]: 1.7 | selectivity ratio [3]: 5 | ED50 (Mus musculus [4]): 12.5 mg/kg | TD50 [5]: 62.5 mg/kg

CN1C(=O)CC[C@@H](NC(=O)OCc2ccccc2)C1=O
ED50 (Mus musculus [1]): 47.5 mg/kg | selectivity ratio [3]: 4.9 | selectivity ratio [8]: 2.5 | ED50 (Mus musculus [4]): 24.4 mg/kg | TD50 [5]: 120 mg/kg

CN1C(=O)OC(C)(C)C1=O [TRIMETHADIONE]
ED50 (Mus musculus [1]): 704 mg/kg | selectivity ratio [2]: 1.5 | selectivity ratio [3]: 4.3 | ED50 (Mus musculus [4]): 250 mg/kg | TD50 [5]: 1070 mg/kg
